Columns and labels:
Assay type in all cases: binding
[1] = molecular target: T1, KRAS (Homo sapiens, UniProt P01116); experiment: NanoLuc fusion BRET target engagement assay in cells, tracer JRW-2025; conditions: HEK293 cells, wild-type KRAS-NanoLuc fusion, tracer JRW-2025, FIG. 4
T1 construct: expressed in transfected cells; host or cells: HEK293
Protocol: (§1) Luminescence was produced from either NanoLuc (Nluc) tagging of KRAS as the BRET donor, or by NanoBiT tagging of KRAS, wherein BRET donor signal originates from KRAS multimeric species in cells. In 96-well plates, 20,000 HEK293 cells per well were transfected with KRAS-Nluc fusions or KRAS-NanoBiT fusions expressed from pFN31K and pFN32K plasmids. Transfections were performed using 3:1 FuGENE HD:plasmid ratios. […] After incubation, NanoBRET-TE substrate solution was added to a final concentration of 1×, and BRET was measured on a Glomax Discover plate reader.

[2] = molecular target: T2, KRAS^G12C (Homo sapiens, UniProt P01116, G12C); experiment: as above; conditions: HEK293 cells, tracer JRW-2025, FIG. 4
T2 construct: expressed in transfected cells; host or cells: HEK293
Protocol: as §1

[3] = molecular target: T3, KRAS^G12D (Homo sapiens, UniProt P01116, G12D); experiment: as above; conditions: HEK293 cells, tracer JRW-2025, FIG. 4
T3 construct: expressed in transfected cells; host or cells: HEK293
Protocol: as §1

[4] = molecular target: T4, KRAS^G12V (Homo sapiens, UniProt P01116, G12V); experiment: as above; conditions: HEK293 cells, tracer JRW-2025, FIG. 4
T4 construct: expressed in transfected cells; host or cells: HEK293
Protocol: as §1

[5] = molecular target: T1, KRAS; experiment: NanoBiT BRET target engagement assay in cells, LgBiT and SmBiT fusions, tracer JRW-2111; conditions: HEK293 cells, wild-type KRAS LgBiT/SmBiT fusions, tracer JRW-2111, FIGS. 2-3
Protocol: as §1

[6] = molecular target: T2, KRAS^G12C; experiment: as above; conditions: HEK293 cells, tracer JRW-2111, FIGS. 2-3
Protocol: as §1

[7] = molecular target: T3, KRAS^G12D; experiment: as above; conditions: HEK293 cells, tracer JRW-2111, FIGS. 2-3
Protocol: as §1

[8] = molecular target: T4, KRAS^G12V; experiment: as above; conditions: HEK293 cells, tracer JRW-2111, FIGS. 2-3
Protocol: as §1

[9] = molecular target: T5, KRAS2B(G12V) (Homo sapiens, UniProt P01116, G12V); experiment: Target engagement at KRAS(G12V) homomultimeric complexes, NanoBiT oligomer configuration with SmBiT tag; conditions: live HEK293 cells, LgBiT-KRAS2B(G12V) and SmBiT-KRAS2B(G12V)
T5 construct: expressed in transfected cells; host or cells: HEK293
Protocol: (§2) To explore this concept, the NanoBiT™ Technology was used to observe KRAS multimeric (e.g., dimer) complexes by NanoBiT tagging of KRAS, wherein BRET donor signal originates from an oligomeric KRAS. In a tissue culture flask, HEK293 cells per well were transfected with KRAS-NanoBiT fusions, LgBiT-KRAS2B(G12V) and SmBiT-KRAS2B(G12V) expressed from pNB3K or pNB4K plasmids along with pGEM-3Z carrier DNA (1:1:8 ratio by mass). Transfections were performed using 3:1 FuGENE HD:plasmid ratios. 24 hours post transfection, cells were treated with compound JRW-2192 and BI-2852.
(§3) After incubation in live cells, NanoBRET-TE substrate solution was added to a final concentration of 1×, and BRET was measured on a Glomax Discover plate reader.

[10] = molecular target: T6, KRAS2B(G12C) (Homo sapiens, UniProt P01116, G12C); experiment: Target engagement at KRAS(G12C) homomultimeric complexes, NanoBiT oligomer configuration with SmBiT tag; conditions: LgBiT-KRAS2B(G12C) and SmBiT-KRAS2B(G12C)
T6 construct: expressed in transfected cells; host or cells: HEK293
Protocol: as §2, with “LgBiT-KRAS2B(G12C)” for “LgBiT-KRAS2B(G12V)”, “SmBiT-KRAS2B(G12C)” for “SmBiT-KRAS2B(G12V)”, “JRW-2220” for “JRW-2192”
as §3
The assay was also performed in digitonin permeabilized cells.

[11] = molecular target: T6, KRAS2B(G12C); experiment: KRAS(G12C) homomultimeric complexes, NanoBiT oligomer configuration with HiBiT tag; conditions: LgBiT-KRAS2B(G12C) and HiBiT-KRAS2B(G12C)
Protocol: as §2, with “form” for “observe”, “LgBiT-KRAS2B(G12C)” for “LgBiT-KRAS2B(G12V)”, “HiBiT-KRAS2B(G12C)” for “SmBiT-KRAS2B(G12V)”, “pFN38A” for “pNB4K”, “JRW-2220” for “JRW-2192”
as §3
The assay was also performed in digitonin permeabilized cells. Even after permeabilization, donor signal levels remained significant due to the use of the HiBiT tag, facilitating measurement of target engagement.

[12] = molecular target: T7, HRAS1 (Homo sapiens, UniProt P01112); experiment: RAS NanoBiT target engagement assay in cells (LgBiT-RAS and SmBiT-RAS); conditions: HEK293 cells, LgBiT-HRAS1 and SmBiT-HRAS1, tracer JRW-2219 or JRW-2220, FIGS. 18-19
T7 construct: expressed in transfected cells; host or cells: HEK293
Protocol: (§4) To explore this concept, the NanoBiT™ Technology was used to form RAS multimeric (e.g., dimer) complexes by NanoBiT tagging of RAS, wherein BRET donor signal originates from an oligomeric RAS. In a tissue culture flask, HEK293 cells per well were transfected with RAS-NanoBiT fusions, LgBiT-RAS and SmBiT-RAS expressed from pNB3K or pNB4K plasmids along with pGEM-3Z carrier DNA (1:1:8 ratio by mass). Transfections were performed using 3:1 FuGENE HD:plasmid ratios. 24 hours post transfection, cells were treated with compound JRW-2219, JRW-2220, or JRW-2310, and BI-2852.

[13] = molecular target: T8, KRAS2B (Homo sapiens, UniProt P01116); experiment: as above; conditions: HEK293 cells, tracer JRW-2219, FIGS. 10-11
T8 construct: expressed in transfected cells; host or cells: HEK293
Protocol: as §4

[14] = molecular target: T6, KRAS2B(G12C); experiment: as above; conditions: HEK293 cells, tracer JRW-2219 or JRW-2220, FIGS. 12-13
Protocol: as §4

[15] = molecular target: T9, KRAS2B(G12D) (Homo sapiens, UniProt P01116, G12D); experiment: as above; conditions: HEK293 cells, tracer JRW-2219 or JRW-2220, FIGS. 14-15
T9 construct: expressed in transfected cells; host or cells: HEK293
Protocol: as §4

[16] = molecular target: T5, KRAS2B(G12V); experiment: as above; conditions: HEK293 cells, tracer JRW-2219 or JRW-2220, FIGS. 16-17
Protocol: as §4

[17] = molecular target: T10, KRAS2B(G13D) (Homo sapiens, UniProt P01116, G13D); experiment: as above; conditions: HEK293 cells, tracer JRW-2310, FIG. 24
T10 construct: expressed in transfected cells; host or cells: HEK293
Protocol: as §4

[18] = molecular target: T11, KRAS2B(Q61H) (Homo sapiens, UniProt P01116, Q61H); experiment: as above; conditions: HEK293 cells, tracer JRW-2310, FIG. 22
T11 construct: expressed in transfected cells; host or cells: HEK293
Protocol: as §4

[19] = molecular target: T12, KRAS2B(Q61L) (Homo sapiens, UniProt P01116, Q61L); experiment: as above; conditions: HEK293 cells, tracer JRW-2310, FIG. 23
T12 construct: expressed in transfected cells; host or cells: HEK293
Protocol: as §4

[20] = molecular target: T13, KRAS2B(Q61R) (Homo sapiens, UniProt P01116, Q61R); experiment: as above; conditions: HEK293 cells, tracer JRW-2310, FIG. 21
T13 construct: expressed in transfected cells; host or cells: HEK293
Protocol: as §4

How did the “competition with the KRAS binding agent (BRET)” value (“competition … (BRET)” for short) [1] turn out when `C=CC(=O)N1CCN(c2ncnc3c(F)c(-c4c(O)cccc4F)c(Cl)cc23)CC1` [ARS-1620] was run?
Its value is “only observed for the KRAS^G12C mutant”.

What about the “competition … (BRET)” value [2] of the same compound?
Its value is “competition was only observed for the KRAS^G12C mutant”.

What about the “competition … (BRET)” value [3] of the same compound?
The value was “only observed for the KRAS^G12C mutant”.

And the “competition … (BRET)” value [4]?
Its value is “only observed for the KRAS^G12C mutant”.

With `Cn1cnc(Cn2ccc3ccc(CNCc4[nH]c5ccccc5c4[C@H]4NC(=O)c5ccc(O)cc54)cc32)c1` [BI-2852] as the compound, how does the “target engagement (competition with the KRAS binding agent, BRET)” value [5] read?
Its value is “target engagement was observed”.

And the “target engagement (competition with the KRAS binding agent, BRET)” value [6]?
The value was “target engagement was observed”.

What about the “target engagement (competition with the KRAS binding agent, BRET)” value [7] of the same compound?
Its value is “target engagement was observed”.

What about the “target engagement (competition with the KRAS binding agent, BRET)” value [8] of the same compound?
Its value is “target engagement was observed”.

What about the “competition … (BRET)” value [1] of the same compound?
The value was “competition was observed”.

What about the “competition … (BRET)” value [2] of the same compound?
Its value is “competition was observed”.

What about the “competition … (BRET)” value [3] of the same compound?
The value was “competition was observed”.

And the “competition … (BRET)” value [4]?
Its value is “competition was observed”.

And the “inhibition of the BRET signal induced by the tracer (functional competition)” value (from here on “inhibition of the BRET signal induced”) ([9]; tracer JRW-2192, FIG. 5)?
The value was “dose-dependent inhibition of the BRET signal”.

What about the “inhibition of the BRET signal induced” value ([10]; digitonin permeabilized HEK293 cells, tracer JRW-2220, FIG. 7) of the same compound?
The value was “dose-dependent inhibition of the BRET signal”.

And the “inhibition of the BRET signal induced” value ([10]; live HEK293 cells, tracer JRW-2220, FIG. 6)?
The value was “dose-dependent inhibition of the BRET signal”.

What about the “inhibition of the BRET signal induced” value ([11]; digitonin permeabilized HEK293 cells, tracer JRW-2220, FIG. 9) of the same compound?
The value was “dose-dependent inhibition of the BRET signal”.

And the “inhibition of the BRET signal induced” value ([11]; live HEK293 cells, tracer JRW-2220, FIG. 8)?
The value was “dose-dependent inhibition of the BRET signal”.

And the “target engagement (BRET, competition with the RAS binding agent)” value [12]?
The value was “target engagement was observed”.

And the “target engagement (BRET, competition with the RAS binding agent)” value [13]?
The value was “target engagement was observed”.

And the “target engagement (BRET, competition with the RAS binding agent)” value [14]?
Its value is “target engagement was observed”.

What about the “target engagement (BRET, competition with the RAS binding agent)” value [15] of the same compound?
The value was “target engagement was observed”.

What about the “target engagement (BRET, competition with the RAS binding agent)” value [16] of the same compound?
Its value is “target engagement was observed”.

And the “target engagement (BRET, competition with the RAS binding agent)” value [17]?
Its value is “target engagement was observed”.

What about the “target engagement (BRET, competition with the RAS binding agent)” value [18] of the same compound?
Its value is “target engagement was observed”.

And the “target engagement (BRET, competition with the RAS binding agent)” value [19]?
The value was “target engagement was observed”.

What about the “target engagement (BRET, competition with the RAS binding agent)” value [20] of the same compound?
Its value is “target engagement was observed”.

For `O=C(CCc1ccc2n1[B-](F)(F)[N+]1=C(c3ccc[nH]3)C=CC1=C2)NCCOCCOCCOCCOCCC(=O)NCc1cccc(Cn2ccc3ccc(CNCc4[nH]c5ccccc5c4C4NC(=O)c5ccc(O)cc54)cc32)c1` (stereo not shown) [JRW-2192, 1-(3-(5,5-difluoro-7-(1H-pyrrol-2-yl)-5H-5λ^4,6λ^4-dipyrrolo[1,2-c:2′,1′-f][1,3,2]diazaborinin-3-yl)propanamido)-N-(3-((6-((((3-(6-hydroxy-3-oxoisoindolin-1-yl)-1H-indol-2-yl)methyl)amino)methyl)-1H-indol-1-yl)methyl)benzyl)-3,6,9,12-tetraoxapentadecan-15-amide], which “BRET signal with increasing concentrations of the tracer” value ([9]; FIG. 5) is on record?
Its value is “dose-dependent increase in the BRET signal”.

`O=C(CCOCCOCCOCCOCCNC(=O)CCc1ccc2n1[B-](F)(F)[N+]1=C(c3ccc[nH]3)C=CC1=C2)NCCCn1cnc(Cn2ccc3ccc(CNCc4[nH]c5ccccc5c4C4NC(=O)c5ccc(O)cc54)cc32)c1` (stereo not shown) [JRW-2220, 1-(3-(5,5-difluoro-7-(1H-pyrrol-2-yl)-5H-5λ^4,6λ^4-dipyrrolo[1,2-c:2′,1′-f][1,3,2]diazaborinin-3-yl)propanamido)-N-(3-(4-((6-((((3-(6-hydroxy-3-oxoisoindolin-1-yl)-1H-indol-2-yl)methyl)amino)methyl)-1H-indol-1-yl)methyl)-1H-imidazol-1-yl)propyl)-3,6,9,12-tetraoxapentadecan-15-amide] was tested. Which “BRET signal with increasing concentrations of the tracer” value ([10]; digitonin permeabilized HEK293 cells, FIG. 7) did it give?
The value was “dose-dependent increase in the BRET signal”.

And the “BRET signal with increasing concentrations of the tracer” value ([10]; live HEK293 cells, FIG. 6)?
Its value is “dose-dependent increase in the BRET signal”.

What about the “BRET signal with increasing concentrations of the tracer” value ([11]; digitonin permeabilized HEK293 cells, FIG. 9) of the same compound?
Its value is “dose-dependent increase in the BRET signal”.

What about the “BRET signal with increasing concentrations of the tracer” value ([11]; live HEK293 cells, FIG. 8) of the same compound?
Its value is “dose-dependent increase in the BRET signal”.
